Laboratory results published in patent US20120173160A1, “METHODS AND SYSTEMS FOR QUANTITATIVELY ASSESSING BIOLOGICAL EVENTS USING ENERGY-PAIRED SCORING” (The Trustees of the University of Pennsylvania, priority 2010, published 2012).
“Also recorded” adds a separate entry of the source.

Key:
Format in all cases: cell-based
Akt-mTOR pathway = test: EPS Akt-mTOR pathway score in expression data set of cells treated with 1294 compounds; conditions: screen of 1294 compounds, strongest negative pathway scores
Protocol: A potential application of EPS is to identify inhibitors of a selected pathway by searching for compounds that induce gene expression changes with a strongly negative pathway score. To test EPS's ability to identify small-molecule inhibitors of a pathway from a large library of compounds, an Akt-mTOR pathway signature was developed using gene expression profiles from the prostates of transgenic mice expressing activated Akt that were treated with either the mTOR inhibitor RAD001 or a vehicle control (Majumder et al.). This signature was used to estimate Akt-mTOR pathway activity in a data set derived from three cell lines that had been treated with 1294 different compounds (Lamb et al.). […] In fact, test samples treated with LY-294002 represented 8 of the top 9 samples identified (FIG. 11A).

TGFβ pathway [1] = test: Western blot of Smad2 phosphorylation in NMuMG cells treated with TGF-β1; conditions: NMuMG cells, 0.15, 0.5, 1.5 or 15 ng/ml, 6 hours
Protocol: To determine whether EPS could quantitatively estimate signal pathway activity in a biological data set, a genome-wide expression data set was generated to reflect graded increases in TGFβ pathway activation by treating the mammary epithelial cell line, NMuMG, with increasing dosages of TGF-β1 for 6 hours. Signature genes were selected using a p-value of 10^−10 associated with the changes in expression without fold-change cutoff.
(§1) To determine whether EPS could quantitatively estimate dose-dependent increases in TGFβ pathway activity using gene expression data, EPS prediction was compared to biochemical analysis of phospho-Smad2 levels in the same samples. Using a previously published TGFβ signature generated from NMuMG cells treated with TGF-β1 for 24 hours, it was determined whether SVD or EPS could detect pathway activation in NMuMG cells treated with increasing doses of TGF-β1. SVD detected pathway activation only in samples treated with the highest dose of TGFβ (15 ng/ml; FIG. 6B).

TGFβ pathway [2] = test: EPS estimate of TGFβ pathway activity from gene expression of NMuMG cells treated with TGF-β1
Protocol: as §1
As expected from increasing TGFβ effects on mRNA levels over time, EPS predicted higher pathway activity in training set samples treated with TGF-β1 for 24 hours than in test samples treated with TGF-β1 for 6 hours. […] Therefore, a TGFβ signature was generated using NMuMG cells treated with the lowest dose of TGFβ (0.15 ng/ml) for the shortest period of time (6 hrs) as the training set. This signature was then used to test the ability of SVD and EPS to predict pathway activation at different TGFβ doses.

Compound	test samples treated with the compound among the top 9 samples identified (Akt-mTOR pathway)	TGFβ pathway activity as levels of phosphorylated Smad2 (TGFβ pathway [1])	EPS-predicted TGFβ pathway activation, signature from 24 hours treatment (TGFβ pathway [2]; NMuMG cells, 0.5, 1.5 and 15 ng/ml, 6 hours)	EPS-estimated TGFβ pathway activation, signature from 0.15 ng/ml for 6 hrs (TGFβ pathway [2]; NMuMG cells, increasing doses (0.5, 1.5, 15 ng/ml))
O=c1cc(N2CCOCC2)oc2c(-c3ccccc3)cccc12 [LY-294002]	8	–	–	–
TGF-β1: TGF-β1 used to treat the mammary epithelial cell line NMuMG	–	dose-dependent increase in TGFβ pathway activity; also recorded: elevated phospho-Smad2 was detected at all doses	significantly increased pathway activation	progressive increase of TGFβ pathway activation
